What all share (assay): relative viability (nuclei count vs DMSO), 5 days (fraction); higher = more cells survive
Compound in the experiment “Metformin + Linsitinib”: CN(C)C(=N)NC(=N)N [Metformin] + C[C@]1(O)C[C@@H](c2nc(-c3ccc4ccc(-c5ccccc5)nc4c3)c3c(N)nccn32)C1 [Linsitinib] (partner 1 µM)
The gist of the method:
(§1)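 Lung cancer cell lines were pin-tool dosed in 1536-well plates on the day after seeding, with either a lone drug or a fixed anchor-drug dose plus five library-drug doses (not always all listed) in √10 steps. Nuclei were counted on 4× images after 5 days. Relative viability is the ratio of treated-well to vehicle-well nuclei counts, with each value a median of duplicate plates.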

Compound in the experiment “Metformin + Pemetrexed”: CN(C)C(=N)NC(=N)N [Metformin] + Nc1nc2[nH]cc(CCc3ccc(C(=O)N[C@@H](CCC(=O)O)C(=O)O)cc3)c2c(=O)[nH]1 [Pemetrexed] (partner 0.2 µM)
The procedure, abridged: as §1

Compound in the experiment “Metformin + Dasatinib”: CN(C)C(=N)NC(=N)N [Metformin] + Cc1nc(Nc2ncc(C(=O)Nc3c(C)cccc3Cl)s2)cc(N2CCN(CCO)CC2)n1 [Dasatinib] (partner 0.075 µM)
The procedure, abridged: as §1

Compound in the experiment “Apatinib + Lapatinib”: N#CC1(c2ccc(NC(=O)c3cccnc3NCc3ccncc3)cc2)CCCC1 [Apatinib] + CS(=O)(=O)CCNCc1ccc(-c2ccc3ncnc(Nc4ccc(OCc5cccc(F)c5)c(Cl)c4)c3c2)o1 [Lapatinib] (partner 2 µM)
The procedure, abridged:
as §1

For NCI-H1793, the relative viability in the experiment with Metformin + Linsitinib (first compound 10 µM) came out at 1.3; with Metformin + Linsitinib (first compound 31.62 µM) it was 1.22; with Metformin + Linsitinib (first compound 100 µM), 1.14; with Metformin + Linsitinib (first compound 316.23 µM) it was 1; with Metformin + Linsitinib (first compound 1000 µM), 1.16; with Metformin + Pemetrexed (first compound 10 µM), 1.16. Further, the relative viability with Metformin + Pemetrexed (first compound 31.62 µM) turned out to be 0.826; in the experiment with Metformin + Pemetrexed (first compound 100 µM) it was 1.23; in the experiment with Metformin + Pemetrexed (first compound 316.23 µM), 0.874; with Metformin + Pemetrexed (first compound 1000 µM) it was 1.22; in the experiment with Metformin + Dasatinib (first compound 10 µM) it was 0.38; in the experiment with Metformin + Dasatinib (first compound 100 µM) it was 0.42. The relative viability was 0.342 with Metformin + Dasatinib (first compound 316.23 µM); 0.515 in the experiment with Metformin + Dasatinib (first compound 1000 µM); 0.553 with Apatinib + Lapatinib (first compound 0.08 µM); 0.616 in the experiment with Apatinib + Lapatinib (first compound 0.253 µM); 0.736 in the experiment with Apatinib + Lapatinib (first compound 0.8 µM); 0.544 in the experiment with Apatinib + Lapatinib (first compound 2.53 µM). For the same cell line, the relative viability in the experiment with Apatinib + Lapatinib (first compound 8 µM) was found to be 0.604.
Consider NCI-H358, for which the relative viability with Metformin + Linsitinib (first compound 10 µM) is 1.04; with Metformin + Linsitinib (first compound 31.62 µM), 0.937; with Metformin + Linsitinib (first compound 100 µM) it was 0.959; in the experiment with Metformin + Linsitinib (first compound 316.23 µM), 1.13; with Metformin + Linsitinib (first compound 1000 µM), 1.31; with Metformin + Pemetrexed (first compound 10 µM) it was 0.156. Besides, the relative viability in the experiment with Metformin + Pemetrexed (first compound 31.62 µM) was 0.182; in the experiment with Metformin + Pemetrexed (first compound 100 µM) it was 0.146; in the experiment with Metformin + Pemetrexed (first compound 316.23 µM) it was 0.162; with Metformin + Pemetrexed (first compound 1000 µM), 0.179; with Metformin + Dasatinib (first compound 10 µM), 0.143; with Metformin + Dasatinib (first compound 31.62 µM), 0.127. Besides, the relative viability was found to be 0.118 with Metformin + Dasatinib (first compound 100 µM); 0.212 in the experiment with Metformin + Dasatinib (first compound 316.23 µM); 0.14 in the experiment with Metformin + Dasatinib (first compound 1000 µM); 0.47 with Apatinib + Lapatinib (first compound 0.08 µM); 0.397 with Apatinib + Lapatinib (first compound 0.253 µM); 0.474 with Apatinib + Lapatinib (first compound 0.8 µM). Besides, the relative viability is 0.439 in the experiment with Apatinib + Lapatinib (first compound 2.53 µM) and 0.403 with Apatinib + Lapatinib (first compound 8 µM).
As for LCLC-97TM1, the relative viability in the experiment with Metformin + Linsitinib (first compound 10 µM) is 0.175; in the experiment with Metformin + Linsitinib (first compound 31.62 µM) it was 0.17; in the experiment with Metformin + Linsitinib (first compound 100 µM), 0.146; in the experiment with Metformin + Linsitinib (first compound 316.23 µM), 0.187; with Metformin + Linsitinib (first compound 1000 µM), 0.243; with Metformin + Pemetrexed (first compound 31.62 µM), 0.198. Further, the relative viability is 0.198 with Metformin + Pemetrexed (first compound 100 µM); 0.171 with Metformin + Pemetrexed (first compound 316.23 µM); 0.188 in the experiment with Metformin + Pemetrexed (first compound 1000 µM); 0.739 in the experiment with Metformin + Dasatinib (first compound 10 µM); 0.734 with Metformin + Dasatinib (first compound 31.62 µM); 0.591 with Metformin + Dasatinib (first compound 100 µM). The relative viability came to 0.529 with Metformin + Dasatinib (first compound 316.23 µM); 0.725 with Metformin + Dasatinib (first compound 1000 µM); 0.845 with Apatinib + Lapatinib (first compound 0.08 µM); 0.818 in the experiment with Apatinib + Lapatinib (first compound 0.253 µM); 0.586 with Apatinib + Lapatinib (first compound 0.8 µM); 0.604 in the experiment with Apatinib + Lapatinib (first compound 2.53 µM). In the experiment with Apatinib + Lapatinib (first compound 8 µM), the relative viability came to 0.475.
As to NCI-H1944, the relative viability stood at 1.36 with Metformin + Linsitinib (first compound 10 µM); 1.39 in the experiment with Metformin + Linsitinib (first compound 31.62 µM); 1.34 with Metformin + Linsitinib (first compound 100 µM); 1.27 in the experiment with Metformin + Linsitinib (first compound 316.23 µM); 1.26 with Metformin + Linsitinib (first compound 1000 µM); 0.505 in the experiment with Metformin + Pemetrexed (first compound 10 µM). Besides, the relative viability with Metformin + Pemetrexed (first compound 31.62 µM) was found to be 0.75; with Metformin + Pemetrexed (first compound 100 µM), 0.625; with Metformin + Pemetrexed (first compound 316.23 µM) it was 0.687; with Metformin + Pemetrexed (first compound 1000 µM), 0.576; in the experiment with Metformin + Dasatinib (first compound 10 µM), 0.22; in the experiment with Metformin + Dasatinib (first compound 31.62 µM), 0.227. Besides, the relative viability in the experiment with Metformin + Dasatinib (first compound 100 µM) was 0.252; with Metformin + Dasatinib (first compound 316.23 µM), 0.254; with Metformin + Dasatinib (first compound 1000 µM), 0.246; in the experiment with Apatinib + Lapatinib (first compound 0.08 µM), 0.832; in the experiment with Apatinib + Lapatinib (first compound 0.253 µM), 0.863; with Apatinib + Lapatinib (first compound 0.8 µM), 0.736. The relative viability with Apatinib + Lapatinib (first compound 2.53 µM) turned out to be 0.745; in the experiment with Apatinib + Lapatinib (first compound 8 µM), 0.739.
Consider 201T, for which the relative viability turned out to be 1.12 in the experiment with Metformin + Linsitinib (first compound 31.62 µM); 1.1 in the experiment with Metformin + Linsitinib (first compound 100 µM); 1.07 with Metformin + Linsitinib (first compound 316.23 µM); 1.06 in the experiment with Metformin + Linsitinib (first compound 1000 µM); 0.329 with Metformin + Pemetrexed (first compound 31.62 µM); 0.313 with Metformin + Pemetrexed (first compound 100 µM). Moreover, the relative viability in the experiment with Metformin + Pemetrexed (first compound 316.23 µM) was determined as 0.289; in the experiment with Metformin + Pemetrexed (first compound 1000 µM), 0.353; in the experiment with Metformin + Dasatinib (first compound 31.62 µM), 0.579; with Metformin + Dasatinib (first compound 100 µM), 0.63; with Metformin + Dasatinib (first compound 316.23 µM), 0.53; with Metformin + Dasatinib (first compound 1000 µM), 0.559. Besides, the relative viability in the experiment with Apatinib + Lapatinib (first compound 0.08 µM) amounted to 1.07; with Apatinib + Lapatinib (first compound 0.253 µM), 0.976; with Apatinib + Lapatinib (first compound 0.8 µM) it was 0.983; in the experiment with Apatinib + Lapatinib (first compound 2.53 µM), 0.975; with Apatinib + Lapatinib (first compound 8 µM) it was 1.01.
CAL-12T: the relative viability with Metformin + Linsitinib (first compound 10 µM) was 0.818; with Metformin + Linsitinib (first compound 31.62 µM) it was 0.81; in the experiment with Metformin + Linsitinib (first compound 100 µM), 0.824; in the experiment with Metformin + Linsitinib (first compound 316.23 µM) it was 0.691; in the experiment with Metformin + Linsitinib (first compound 1000 µM), 0.759; with Metformin + Pemetrexed (first compound 10 µM) it was 1.05. For the same cell line, the relative viability with Metformin + Pemetrexed (first compound 31.62 µM) was 1.04; with Metformin + Pemetrexed (first compound 100 µM), 1.26; with Metformin + Pemetrexed (first compound 316.23 µM), 1.13; in the experiment with Metformin + Pemetrexed (first compound 1000 µM), 0.97; with Metformin + Dasatinib (first compound 10 µM), 0.471; with Metformin + Dasatinib (first compound 31.62 µM) it was 0.58. In addition, the relative viability in the experiment with Metformin + Dasatinib (first compound 100 µM) was 0.479; with Metformin + Dasatinib (first compound 316.23 µM) it was 0.357; in the experiment with Metformin + Dasatinib (first compound 1000 µM) it was 0.515; with Apatinib + Lapatinib (first compound 0.08 µM), 0.736; with Apatinib + Lapatinib (first compound 0.253 µM), 0.608; with Apatinib + Lapatinib (first compound 0.8 µM), 0.778. The relative viability with Apatinib + Lapatinib (first compound 2.53 µM) stood at 0.575; in the experiment with Apatinib + Lapatinib (first compound 8 µM), 0.589.

Values taken from the supplement of paper PMC10307832.
